Values of other authors as cited in US11458150B2 (priority 2019, dated 2022).

Test system: pellagra patients
Conditions: in vivo

O=C(O)c1cccnc1 [nicotinic acid]
effect on symptoms of pellagra: disappearance of many symptoms of the disease | time to blanching of acute erythematous dermal lesions with intact epithelium: ≤ 48 h
